Where two headings read alike, the source gives them in different places.
Target: T1, IRAK4 (Homo sapiens, UniProt Q9NWZ3)
T1 construct: Degradation of IRAK4 in OCI-LY10 was quantitatively measured using Meso Scale Discovery technology; endogenous in cells; host or cells: OCI-LY10
T1 sequence (Q9NWZ3 1-460): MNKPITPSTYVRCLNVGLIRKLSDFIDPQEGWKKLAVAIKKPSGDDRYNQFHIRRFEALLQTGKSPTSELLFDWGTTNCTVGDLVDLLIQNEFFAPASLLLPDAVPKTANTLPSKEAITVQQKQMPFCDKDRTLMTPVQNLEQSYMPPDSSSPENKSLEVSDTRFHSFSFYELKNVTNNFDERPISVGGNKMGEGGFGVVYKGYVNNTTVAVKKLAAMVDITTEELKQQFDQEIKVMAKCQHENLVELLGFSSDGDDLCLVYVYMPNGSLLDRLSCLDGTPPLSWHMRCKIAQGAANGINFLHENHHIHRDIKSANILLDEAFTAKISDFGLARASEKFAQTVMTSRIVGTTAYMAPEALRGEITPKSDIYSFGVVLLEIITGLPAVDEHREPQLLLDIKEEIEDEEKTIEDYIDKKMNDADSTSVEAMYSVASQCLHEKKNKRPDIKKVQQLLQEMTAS
Assay: IRAK4 MSD Degradation in OCI-LY10
Assay type: cell-based
Settings: OCI-LY10 cells, MSD
Procedure, shortened: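 DC50, from a three-parameter logistic fit and reported as letter bins A (<0.01 μM), B, C, D (>0.2 μM or not tested), reflects IRAK4 loss measured by MSD electrochemiluminescence in OCI-LY10 lysates. Treatment: 8 doses, 1:3 steps, top 1 to 10 μM, 4 to 24 h, 37 °C.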

[1] = 4 hrs incubation, read-out: IRAK4 degradation in OCI-LY10 at 4 hrs: DC50
[2] = 24 hrs incubation, read-out: IRAK4 degradation in OCI-LY10 at 24 hrs: DC50

SMILES | DC50 [1] [nM] | DC50 [2] [nM]
Cn1c(=O)n(C2CCC(=O)NC2=O)c2cccc(C#CCN3CCN(C[C@H]4CC[C@H](n5cc(NC(=O)c6cnn7ccc(N8CC(C)(C)C8)nc67)c(C(F)F)n5)CC4)CC3)c21 (some centres unmarked) [I-225] | > 200 | < 10
Cn1c(=O)n(C2CCC(=O)NC2=O)c2cccc(C#CCN3CCN(C[C@H]4CC[C@H](n5cc(NC(=O)c6cnn7ccc(N8CCC9(CC8)CC9)nc67)c(C(F)F)n5)CC4)CC3)c21 (some centres unmarked) [I-228] | > 200 | < 10
Cn1c(=O)n(C2CCC(=O)NC2=O)c2cccc(C#CCOC3CCN(C[C@H]4CC[C@H](n5cc(NC(=O)c6cnn7ccc(N8CCNCC8)nc67)c(C(F)F)n5)CC4)CC3)c21 (some centres unmarked) [I-308] | > 200 | < 10
Cn1c(=O)n(C2CCC(=O)NC2=O)c2cccc(C#CCOC3CCN(C[C@H]4CC[C@H](n5cc(NC(=O)c6cnn7ccc(N8CCS(=O)(=O)CC8)nc67)c(C(F)F)n5)CC4)CC3)c21 (some centres unmarked) [I-304] | > 200 | < 10
CN(C[C@H]1CC[C@H](n2cc3cc(NC(=O)c4cccc(C(F)(F)F)n4)ccc3n2)CC1)C1CCN(c2cccc3c2n(C)c(=O)n3C2CCC(=O)NC2=O)CC1F (some centres unmarked) [I-555] | > 200 | 10 to 100
Cn1c(=O)n(C2CCC(=O)NC2=O)c2cccc(C[C@@H]3CN(Cc4ccc(-n5cc(NC(=O)c6cnn7cccnc67)c(C(F)F)n5)cc4)CCO3)c21 (some centres unmarked) [I-392] | > 200 | > 200
Cn1c(=O)n(C2CCC(=O)NC2=O)c2cccc(C#CCO[C@H]3CCN(C[C@H]4CC[C@H](n5cc(NC(=O)c6cnn7ccc(N8CCS(=O)(=O)CC8)nc67)c(C(F)F)n5)CC4)C[C@@H]3F)c21 (some centres unmarked) [I-714] | > 200 | < 10
Cn1c(=O)n(C2CCC(=O)NC2=O)c2cccc(N3CCN([C@H]4CC[C@@H](n5cc(NC(=O)c6cnn7ccc(N8C[C@H]9C[C@@H]8CO9)nc67)c(C(F)F)n5)CC4)CC3)c21 (some centres unmarked) [I-424] | > 200 | > 200
Cn1c(=O)n(C2CCC(=O)NC2=O)c2ccc(C3=CCN(C[C@H]4CC[C@H](n5cc6cc(NC(=O)c7cccc(C(F)(F)F)n7)ccc6n5)CC4)CC3(F)F)cc21 (some centres unmarked) [I-464] | > 200 | > 200
Cc1cccc(C(=O)Nc2ccc3nn([C@H]4CC[C@H](CN5CC[C@H](c6cccc7c6n(C)c(=O)n7C6CCC(=O)NC6=O)[C@H](F)C5)CC4)cc3c2)n1 (some centres unmarked) [I-623] | > 200 | > 200
Cn1c(=O)n(C2CCC(=O)NC2=O)c2cccc(N3CC(C4CCN([C@H]5CC[C@@H](n6cc(NC(=O)c7cnn8ccc(N9C[C@H]%10C[C@@H]9CO%10)nc78)c(C(F)F)n6)CC5)CC4(F)F)C3)c21 (some centres unmarked) [I-760] | > 200 | > 200
CN1CCOCC1c1ccn2ncc(C(=O)Nc3cn([C@H]4CC[C@H](CN5CCC(OCC#Cc6cccc7c6n(C)c(=O)n7C6CCC(=O)NC6=O)CC5)CC4)nc3C(F)F)c2n1 (some centres unmarked) [I-311] | > 200 | > 200
Cc1nn([C@H]2CC[C@H](CN3CCN(c4ccc5c(c4)n(C)c(=O)n5C4CCC(=O)NC4=O)CC3)CC2)cc1NC(=O)c1cnn2cc(N(C)C)cnc12 (some centres unmarked) [I-217] | > 200 | > 200
Cn1c(=O)n(C2CCC(=O)NC2=O)c2cccc(N3CCN(CC4COC5(C4)CN(C[C@H]4CC[C@H](n6cc7cc(NC(=O)c8cccc(C(F)(F)F)n8)ccc7n6)CC4)C5)CC3)c21 (some centres unmarked) [I-661] | > 200 | > 200
COc1cc2nn([C@H]3CC[C@H](CN4CCC5(CC4)CC(Nc4cccc6c4C(=O)N(C4CCC(=O)NC4=O)C6=O)C5)CC3)cc2cc1NC(=O)c1ccccn1 (some centres unmarked) [I-140] | > 200 | 10 to 100
Cn1c(=O)n(C2CCC(=O)NC2=O)c2cccc([C@H]3CCN(C[C@H]4CC[C@H](n5cc6cc(NC(=O)c7cccc(C(F)F)n7)ncc6n5)CC4)C[C@@H]3F)c21 (some centres unmarked) [I-642] | > 200 | > 200
CC1CN(c2ccn3ncc(C(=O)Nc4cn([C@H]5CC[C@H](CN(C)C6CCN(c7cccc8c7n(C)c(=O)n8C7CCC(=O)NC7=O)CC6)CC5)nc4C(F)F)c3n2)CC(C)O1 (some centres unmarked) [I-359] | > 200 | > 200
Cn1c(=O)n(C2CCC(=O)NC2=O)c2cccc(C#CCN3CCN(C[C@H]4CC[C@H](n5cc(NC(=O)c6cnn7ccc(C8CCOCC8)nc67)c(C(F)F)n5)CC4)CC3)c21 (some centres unmarked) [I-298] | > 200 | < 10
Cn1c(=O)n(C2CCC(=O)NC2=O)c2cccc(C#CCN3CCN([C@H]4CC[C@H](n5cc(NC(=O)c6cnn7ccc(N8C[C@H]9C[C@@H]8CO9)nc67)c(C(F)F)n5)CC4)CC3)c21 (some centres unmarked) [I-340] | > 200 | > 200
Cc1cccc(C(=O)Nc2cc3cn([C@H]4CC[C@H](CN5CC[C@H](c6cccc7c6n(C)c(=O)n7C6CCC(=O)NC6=O)[C@@H](F)C5)CC4)nc3cc2C(C)(C)O)n1 (some centres unmarked) [I-646] | > 200 | > 200
CN(C[C@H]1CC[C@H](n2cc(NC(=O)c3cnn4cccnc34)c(C(F)F)n2)CC1)c1ccc(-c2cccc3c2n(C)c(=O)n3C2CCC(=O)NC2=O)cc1 (some centres unmarked) [I-378] | > 200 | > 200
Cn1c(=O)n(C2CCC(=O)NC2=O)c2cccc(C#CCN3CCN(C[C@H]4CC[C@H](n5cc(NC(=O)c6cnn7ccc(N8CCOC9(CC9)C8)nc67)c(C(F)F)n5)CC4)CC3)c21 (some centres unmarked) [I-286] | > 200 | < 10
Cn1c(=O)n(C2CCC(=O)NC2=O)c2cccc(C3CN([C@H]4CCN(C[C@H]5CC[C@H](n6cc7cc(NC(=O)c8cccc(C(F)(F)F)n8)ncc7n6)CC5)C[C@@H]4F)C3)c21 (some centres unmarked) [I-672] | > 200 | < 10
Cn1c(=O)n(C2CCC(=O)NC2=O)c2cccc(N3CC(COC4CN(C[C@H]5CC[C@H](n6cc(NC(=O)c7cnn8ccc(N9C[C@H]%10C[C@@H]9CO%10)nc78)c(C(F)F)n6)CC5)C4)C3)c21 (some centres unmarked) [I-599] | > 200 | < 10

Continued, values first:

DC50 [1] [nM] | DC50 [2] [nM] | SMILES
> 200 | > 200 | Cn1c(=O)n(C2CCC(=O)NC2=O)c2cccc(C#CCN3CCN(C[C@H]4CC[C@H](n5cc(NC(=O)c6cnn7ccc(N8CCOC(C(F)(F)F)C8)nc67)c(C(F)F)n5)CC4)CC3)c21 (some centres unmarked) [I-322]
> 200 | > 200 | COc1ncc([C@H]2CC[C@H](CN3CCC(OCC#Cc4cccc5c4n(C)c(=O)n5C4CCC(=O)NC4=O)CC3)CC2)cc1NC(=O)c1cnn2ccc(N3C[C@H]4C[C@@H]3CO4)nc12 (some centres unmarked) [I-180]
> 200 | > 200 | C[C@H]1CN(c2ccn3ncc(C(=O)Nc4cn([C@H]5CC[C@H](CN(C)C6CCN(c7cccc8c7n(C)c(=O)n8C7CCC(=O)NC7=O)CC6(F)F)CC5)nc4C(F)F)c3n2)C[C@H](C)O1 (some centres unmarked) [I-533]
> 200 | > 200 | COc1cc2nn([C@H]3CC[C@H](CN4CCC(c5cccc6c(N7CCC(=O)NC7=O)cncc56)C(F)(F)C4)CC3)cc2cc1NC(=O)c1cccc(C(F)(F)F)n1 (some centres unmarked) [I-467]
> 200 | > 200 | Cn1c(=O)n(C2CCC(=O)NC2=O)c2cccc([C@H]3CCN(C[C@H]4CC[C@H](n5cc6cc(NC(=O)c7cccc(C(F)F)n7)c(C(C)(C)O)cc6n5)CC4)C[C@H]3F)c21 (some centres unmarked) [I-655]
10 to 100 | 10 to 100 | O=C1CCC(c2ccc(C#CCOC3CCN(C[C@H]4CC[C@H](n5cc(NC(=O)c6cnn7ccc(N8C[C@H]9C[C@@H]8CO9)nc67)c(C(F)F)n5)CC4)CC3)cc2)C(=O)N1 (some centres unmarked) [I-198]
> 200 | > 200 | Cn1c(=O)n(C2CCC(=O)NC2=O)c2cccc([C@H]3C[C@H](O[C@@H]4CCN(C[C@H]5CC[C@H](n6cc(NC(=O)c7cnn8ccc(N9C[C@H]%10C[C@@H]9CO%10)nc78)c(C(F)F)n6)CC5)C[C@@H]4F)C3)c21 (some centres unmarked) [I-593]
10 to 100 | 10 to 100 | COc1cc2nn([C@H]3CC[C@H](CN4CCC5(CC4)CCN(c4cccc6c(N7CCC(=O)NC7=O)cccc46)CC5)CC3)cc2cc1NC(=O)c1cncc(C#N)c1 [I-93]
< 10 | > 200 | O=C1CCN(c2cncc3c(C4CCN(C5CCN(C[C@H]6CC[C@H](n7cc(NC(=O)c8cnn9ccc(N%10C[C@H]%11C[C@@H]%10CO%11)nc89)c(C(F)F)n7)CC6)CC5)CC4)cccc23)C(=O)N1 [I-74]
< 10 | > 200 | Cn1c(=O)n(C2CCC(=O)NC2=O)c2cccc(CC[C@H]3CN(C[C@H]4CC[C@H](n5cc(NC(=O)c6cnn7cccnc67)c(C(F)F)n5)CC4)CCO3)c21 (some centres unmarked) [I-387]
< 10 | > 200 | Cn1c(=O)n(C2CCC(=O)NC2=O)c2cccc(C#CCN3CCN(C[C@H]4CC[C@H](n5cc(NC(=O)c6cnn7ccc(N8CCC9(COC9)C8)nc67)c(C(F)F)n5)CC4)CC3)c21 (some centres unmarked) [I-320]
10 to 100 | > 200 | Cn1c(=O)n(C2CCC(=O)NC2=O)c2cccc(C#CCO[C@H]3CCN(C[C@H]4CC[C@H](n5cc(NC(=O)c6cnn7ccc(N8C[C@H]9C[C@@H]8CO9)nc67)c(C(F)F)n5)CC4)C[C@@H]3F)c21 (some centres unmarked) [I-23]
> 200 | > 200 | Cn1c(=O)n(C2CCC(=O)NC2=O)c2cccc([C@H]3C[C@H](O[C@@H]4CCN(C[C@H]5CC[C@H](n6cc(NC(=O)c7cnn8ccc(N9C[C@H]%10C[C@@H]9CO%10)nc78)c(C(F)F)n6)CC5)C[C@H]4F)C3)c21 (some centres unmarked) [I-594]

Reference: US12091411B2, “IRAK degraders and uses thereof” (Kymera Therapeutics, Inc., priority 2022, dated 2024)
